Source: ChEMBL document CHEMBL3112480, “γ-Alkylidene-γ-lactones and isobutylpyrrol-2(5H)-ones analogues to rubrolides as inhibitors of biofilm formation by gram-positive and gram-negative bacteria” (Bioorg Med Chem Lett, 2014)
Values after ≈ are worked out from the molar mass of the structure shown. One block for each compound: values may come before it.

Assays:
Pseudomonas aeruginosa [1] = test: Antibacterial activity against Pseudomonas aeruginosa ATCC 27853 assessed as effect on planktonic growth at 0.17 ug/ml after 20 hrs relative to control; format: functional
Staphylococcus aureus [2] = test: Antibacterial activity against Staphylococcus aureus ATCC 25923 assessed as effect on planktonic growth at 0.17 ug/ml after 20 hrs relative to control; format: functional
[3] = system: Staphylococcus epidermidis; test: Antibacterial activity against Staphylococcus epidermidis ATCC 35547 assessed as effect on planktonic growth at 0.34 ug/ml after 20 hrs relative to control; format: functional
Staphylococcus aureus [4] = test: Antibacterial activity against Staphylococcus aureus ATCC 25923 assessed as effect on planktonic growth at 10.9 ug/ml after 20 hrs relative to control; format: functional
[5] = system: Staphylococcus epidermidis; test: Antibacterial activity against Staphylococcus epidermidis ATCC 35547 assessed as effect on planktonic growth at 1.37 ug/ml after 20 hrs relative to control; format: functional
Streptococcus mutans [6] = test: Antibacterial activity against Streptococcus mutans ATCC 25175 assessed as effect on planktonic growth at 43.8 ug/ml after 20 hrs relative to control; format: functional
[7] = system: Staphylococcus epidermidis; test: Induction of biofilm formation in Staphylococcus epidermidis ATCC 35547 at 87.5 ug/ml after 20 hrs by crystal-violet staining method relative to control; format: organism-based
Staphylococcus aureus [8] = test: Antibacterial activity against Staphylococcus aureus ATCC 25923 assessed as effect on planktonic growth at 43.8 ug/ml after 20 hrs relative to control; format: functional
Pseudomonas aeruginosa [9] = test: Antibacterial activity against Pseudomonas aeruginosa ATCC 27853 assessed as effect on planktonic growth at 2.73 ug/ml after 20 hrs relative to control; format: functional
[10] = system: Staphylococcus epidermidis; test: Antibacterial activity against Staphylococcus epidermidis ATCC 35547 assessed as effect on planktonic growth at 0.68 ug/ml after 20 hrs relative to control; format: functional
Pseudomonas aeruginosa [11] = test: Antibacterial activity against Pseudomonas aeruginosa ATCC 27853 assessed as effect on planktonic growth at 21.9 ug/ml after 20 hrs relative to control; format: functional
Staphylococcus aureus [12] = test: Antibacterial activity against Staphylococcus aureus ATCC 25923 assessed as effect on planktonic growth at 5.5 ug/ml after 20 hrs relative to control; format: functional
[13] = system: Staphylococcus epidermidis; test: Antibacterial activity against Staphylococcus epidermidis ATCC 35547 assessed as effect on planktonic growth at 2.73 ug/ml after 20 hrs relative to control; format: functional
Staphylococcus aureus [14] = test: Antibacterial activity against Staphylococcus aureus ATCC 25923 assessed as effect on planktonic growth at 21.9 ug/ml after 20 hrs relative to control; format: functional
[15] = system: Staphylococcus epidermidis; test: Antibacterial activity against Staphylococcus epidermidis ATCC 35547 assessed as effect on planktonic growth at 0.17 ug/ml after 20 hrs relative to control; format: functional
[16] = system: Staphylococcus epidermidis; test: Antibacterial activity against Staphylococcus epidermidis ATCC 35547 assessed as effect on planktonic growth at 10.9 ug/ml after 20 hrs relative to control; format: functional
Pseudomonas aeruginosa [17] = test: Antibacterial activity against Pseudomonas aeruginosa ATCC 27853 assessed as effect on planktonic growth at 0.68 ug/ml after 20 hrs relative to control; format: functional
[18] = system: Staphylococcus epidermidis; test: Antibacterial activity against Staphylococcus epidermidis ATCC 35547 assessed as effect on planktonic growth at 21.9 ug/ml after 20 hrs relative to control; format: functional
Pseudomonas aeruginosa [19] = test: Antibacterial activity against Pseudomonas aeruginosa ATCC 27853 assessed as effect on planktonic growth at 0.34 ug/ml after 20 hrs relative to control; format: functional
Staphylococcus aureus [20] = test: Antibacterial activity against Staphylococcus aureus ATCC 25923 assessed as effect on planktonic growth at 87.5 ug/ml after 20 hrs relative to control; format: functional
Pseudomonas aeruginosa [21] = test: Antibacterial activity against Pseudomonas aeruginosa ATCC 27853 assessed as effect on planktonic growth at 10.9 ug/ml after 20 hrs relative to control; format: functional
Staphylococcus aureus [22] = test: Antibacterial activity against Staphylococcus aureus ATCC 25923 assessed as effect on planktonic growth at 0.34 ug/ml after 20 hrs relative to control; format: functional
Streptococcus mutans [23] = test: Antibacterial activity against Streptococcus mutans ATCC 25175 assessed as effect on planktonic growth at 0.68 ug/ml after 20 hrs relative to control; format: functional
Staphylococcus aureus [24] = test: Antibacterial activity against Staphylococcus aureus ATCC 25923 assessed as effect on planktonic growth at 1.37 ug/ml after 20 hrs relative to control; format: functional
Streptococcus mutans [25] = test: Antibacterial activity against Streptococcus mutans ATCC 25175 assessed as effect on planktonic growth at 10.9 ug/ml after 20 hrs relative to control; format: functional
Staphylococcus aureus [26] = test: Antibacterial activity against Staphylococcus aureus ATCC 25923 assessed as effect on planktonic growth at 0.68 ug/ml after 20 hrs relative to control; format: functional
Streptococcus mutans [27] = test: Antibacterial activity against Streptococcus mutans ATCC 25175 assessed as effect on planktonic growth at 0.34 ug/ml after 20 hrs relative to control; format: functional
Pseudomonas aeruginosa [28] = test: Antibacterial activity against Pseudomonas aeruginosa ATCC 27853 assessed as effect on planktonic growth at 5.5 ug/ml after 20 hrs relative to control; format: functional
Pseudomonas aeruginosa [29] = test: Antibacterial activity against Pseudomonas aeruginosa ATCC 27853 assessed as effect on planktonic growth at 87.5 ug/ml after 20 hrs relative to control; format: functional
Streptococcus mutans [30] = test: Antibacterial activity against Streptococcus mutans ATCC 25175 assessed as effect on planktonic growth at 2.73 ug/ml after 20 hrs relative to control; format: functional
[31] = system: Staphylococcus epidermidis; test: Antibacterial activity against Staphylococcus epidermidis ATCC 35547 assessed as effect on planktonic growth at 43.8 ug/ml after 20 hrs relative to control; format: functional
Streptococcus mutans [32] = test: Antibacterial activity against Streptococcus mutans ATCC 25175 assessed as effect on planktonic growth at 87.5 ug/ml after 20 hrs relative to control; format: functional
Streptococcus mutans [33] = test: Antibacterial activity against Streptococcus mutans ATCC 25175 assessed as effect on planktonic growth at 21.9 ug/ml after 20 hrs relative to control; format: functional
[34] = system: Staphylococcus epidermidis; test: Antibacterial activity against Staphylococcus epidermidis ATCC 35547 assessed as effect on planktonic growth at 5.5 ug/ml after 20 hrs relative to control; format: functional
[35] = system: Staphylococcus epidermidis; test: Antibacterial activity against Staphylococcus epidermidis ATCC 35547 assessed as effect on planktonic growth at 87.5 ug/ml after 20 hrs relative to control; format: functional
Streptococcus mutans [36] = test: Antibacterial activity against Streptococcus mutans ATCC 25175 assessed as effect on planktonic growth at 5.5 ug/ml after 20 hrs relative to control; format: functional
Staphylococcus aureus [37] = test: Antibacterial activity against Staphylococcus aureus ATCC 25923 assessed as effect on planktonic growth at 2.73 ug/ml after 20 hrs relative to control; format: functional
Streptococcus mutans [38] = test: Antibacterial activity against Streptococcus mutans ATCC 25175 assessed as effect on planktonic growth at 1.37 ug/ml after 20 hrs relative to control; format: functional
[39] = system: Staphylococcus epidermidis; test: Antibacterial activity against Staphylococcus epidermidis ATCC 35547 assessed as inhibition of biofilm formation after 20 hrs by crystal-violet staining method; format: functional, organism-based
Pseudomonas aeruginosa [40] = test: Antibacterial activity against Pseudomonas aeruginosa ATCC 27853 assessed as effect on planktonic growth at 43.8 ug/ml after 20 hrs relative to control; format: functional
Pseudomonas aeruginosa [41] = test: Antibacterial activity against Pseudomonas aeruginosa ATCC 27853 assessed as effect on planktonic growth at 1.37 ug/ml after 20 hrs relative to control; format: functional
Pseudomonas aeruginosa [42] = test: Antibacterial activity against Pseudomonas aeruginosa ATCC 27853 assessed as inhibition of biofilm formation after 20 hrs by crystal-violet staining method; format: functional, organism-based; conditions: for IC50: ATCC 27853, 20 h
Streptococcus mutans [43] = test: Antibacterial activity against Streptococcus mutans ATCC 25175 assessed as effect on planktonic growth at 0.17 ug/ml after 20 hrs relative to control; format: functional

Activity [7]: 46.9%
IC50 (Pseudomonas aeruginosa [42]): 2.2 µg/mL (≈ 4.45 µM)
SMILES: COc1cccc(CC2(O)C(c3cc(Cl)ccc3OC)=C(Br)C(=O)N2CC(C)C)c1 (stereo not drawn)
Activity (Pseudomonas aeruginosa [1]): -4%
Activity (Staphylococcus aureus [2]): 2%
Activity [3]: 3.3%
Activity (Staphylococcus aureus [4]): -9.9%
Activity [5]: 4.7%
Activity (Streptococcus mutans [6]): 6.5%
Activity (Staphylococcus aureus [8]): 0.7%
Activity (Pseudomonas aeruginosa [9]): -18.9%
Activity [10]: 5.1%
Activity (Pseudomonas aeruginosa [11]): -3.7%
Activity (Staphylococcus aureus [12]): -8.1%
Activity [13]: 3.4%
Activity (Staphylococcus aureus [14]): -15.1%
Activity [15]: 10%
Activity [16]: -0.3%
Activity (Pseudomonas aeruginosa [17]): -6.7%
Activity [18]: 6.9%
Activity (Pseudomonas aeruginosa [19]): -5.8%
Activity (Staphylococcus aureus [20]): 22.1%
Activity (Pseudomonas aeruginosa [21]): -3.3%
Activity (Staphylococcus aureus [22]): 0.7%
Activity (Streptococcus mutans [23]): -12.5%
Activity (Staphylococcus aureus [24]): 6.8%
Activity (Streptococcus mutans [25]): -3.7%
Activity (Staphylococcus aureus [26]): -5%
Activity (Streptococcus mutans [27]): -12.5%
Activity (Pseudomonas aeruginosa [28]): -5.5%
Activity (Pseudomonas aeruginosa [29]): -3.6%
Activity (Streptococcus mutans [30]): 0.3%
Activity [31]: 15.7%
Activity (Streptococcus mutans [32]): 9%
Activity (Streptococcus mutans [33]): -0.6%
Activity [34]: 6.4%
Activity [35]: 14.5%
Activity (Streptococcus mutans [36]): 1.6%
Activity (Staphylococcus aureus [37]): 2.3%
Activity (Streptococcus mutans [38]): -8.7%
inhibition [39]: Dose-dependent effect
Activity (Pseudomonas aeruginosa [40]): -2.3%
Activity (Pseudomonas aeruginosa [41]): -4.2%
inhibition (Pseudomonas aeruginosa [42]): Dose-dependent effect
Activity (Streptococcus mutans [43]): -14%

Activity [7]: 143.6%
IC50 (Pseudomonas aeruginosa [42]): > 87.5 µg/mL
SMILES: COc1ccccc1C1=C(Br)C(=O)N(CC(C)C)C1(O)Cc1ccc(C(F)(F)F)cc1 (stereo not drawn)
Activity (Pseudomonas aeruginosa [1]): 4.7%
Activity (Staphylococcus aureus [2]): -4.8%
Activity [3]: 1.9%
Activity (Staphylococcus aureus [4]): -5.8%
Activity [5]: 0.1%
Activity (Streptococcus mutans [6]): -29.9%
Activity (Staphylococcus aureus [8]): -17%
Activity (Pseudomonas aeruginosa [9]): -18.4%
Activity [10]: 1.4%
Activity (Pseudomonas aeruginosa [11]): -12.2%
Activity (Staphylococcus aureus [12]): -4.1%
Activity [13]: 3.5%
Activity (Staphylococcus aureus [14]): -17%
Activity [15]: 6.3%
Activity [16]: 16.4%
Activity (Pseudomonas aeruginosa [17]): -6.5%
Activity [18]: 13.8%
Activity (Pseudomonas aeruginosa [19]): 3.7%
Activity (Staphylococcus aureus [20]): -15.4%
Activity (Pseudomonas aeruginosa [21]): -16.2%
Activity (Staphylococcus aureus [22]): -2.8%
Activity (Streptococcus mutans [23]): 10.9%
Activity (Staphylococcus aureus [24]): 2.5%
Activity (Streptococcus mutans [25]): -23.9%
Activity (Staphylococcus aureus [26]): -5.6%
Activity (Streptococcus mutans [27]): 6.2%
Activity (Pseudomonas aeruginosa [28]): -17.2%
Activity (Pseudomonas aeruginosa [29]): -10.8%
Activity (Streptococcus mutans [30]): 1.7%
Activity [31]: 16.3%
Activity (Streptococcus mutans [32]): -36.3%
Activity (Streptococcus mutans [33]): -26.9%
Activity [34]: 10.7%
Activity [35]: 0.5%
Activity (Streptococcus mutans [36]): -18.7%
Activity (Staphylococcus aureus [37]): 0.5%
Activity (Streptococcus mutans [38]): 12.4%
inhibition [39]: Dose-dependent effect
Activity (Pseudomonas aeruginosa [40]): -7.8%
Activity (Pseudomonas aeruginosa [41]): -19.3%
inhibition (Pseudomonas aeruginosa [42]): Dose-dependent effect
Activity (Streptococcus mutans [43]): 0.7%
